Earlier results as cited in US6743821B2, “Glycerol-lactate esters for use as an energy supplement during exercise and recovery” (priority 2001, dated 2004).

Key:
[1] = blood of Wistar rats
isolated working hearts = conditions: concentrated sodium lactate added to hearts from shocked animals

conversion of the infused tracer in the blood [1] | Structure (SMILES) | performance of isolated working hearts (isolated working hearts)
quickly converted to [3-^13C]lactate | [13CH3]C(=O)C(=O)O [[3-^13C]pyruvate] | –
– | CC(O)C(=O)[O-].[Na+] (centres unmarked) [sodium lactate] | significantly enhanced
